Molecular target: T1, MC2R (Homo sapiens, UniProt Q01718)
T1 construct: purchased Promega (in-house HiBiT-GPCR construct library, NanoBRET)
Test: NanoBRET screen HiBiT-MC2R in HEK293
Format: binding
Method: Each tracer candidate was screened across the entire library of HiBiT-GPCR constructs using NanoBRET as the detection modality. As depicted in Figure 4A, the specificity of interactions was evaluated through decrease in BRET due to competitive displacement of a bound tracer by excess parental compound. Each tracer was analyzed for binding to each HiBiT-GPCR fusion in the absence and in the presence of competing parental compound. Briefly, HEK293 cells were transfected with HiBiT-GPCR constructs diluted into promoterless DNA to reduce expression and maximize translocation to the cell surface. Each tracer candidate was then screened at concentrations of 1 μM and 0.1 μM across cells expressing these fusions. Cells were treated for 1.5 h with tracer either alone or in the presence of 20 μM competing parental compound (i.e., control). BRET was measured upon addition of purified LgBiT and subsequent complementation with HiBiT genetically fused to a GPCR. The specificity of interactions was assessed through a decrease in BRET signal due to competitive displacement of the bound tracer. To further gauge the robustness of these interactions, the fold response over the control (i.e., BRETtracer/BRETcontrol) was calculated. We chose a 1.5-fold response, which translates to ≥7-fold signal over noise as the minimal threshold required to score an interaction as positive.
HiBiT-GPCR DNA constructs were diluted in 10 mM Tris pH 8 to a final concentration of 0.01 μg/μL, arrayed in 96-well plates and stored at −20 °C. For transfection, HEK293 cells were suspended in Opti-MEM (without phenol red) supplemented with 2% fetal bovine serum (Seradigm) and 100 units/mL penicillin–streptomycin (Gibco) at a final concentration of 220,000 cells/mL and dispensed into white 96-well plates at 90 μL/well. Subsequent transfections and screens were carried using an Agilent Bravo Automated Liquid Handling Platform. First, the 96-well HiBiT DNA arrays were diluted 25-fold in Opti-MEM (without serum or phenol red) to a final concentration of 0.0004 μg/μL and 20 μL of the diluted DNAs were transferred into new 96-well plates. Next, promoterless carrier DNA (1 μg/μL) was diluted 25-fold (0.04 μg/μL) and then dispensed into the diluted arrays at 20 μL/well. Following brief mixing, Viafect transfection reagent (Promega) diluted 16-fold into Opti-MEM was dispensed into the plates at 40 μL/well. After mixing by pipetting, plates were incubated for 10 min on the pipetting station deck. The DNA-transfection reagent complexes were then added to plates containing cells. To facilitate the screen, 10 μL of DNA-transfection reagent complexes were added in duplicates to the top 4 and bottom 4 rows, resulting in two identical 48-well arrays per plate. Plates with transfected cells were incubated for 18–20 h at 37 °C/5% CO2. A screen of each tracer across the entire library using two different concentrations requires duplicate plates of transfected cells. Depending on the number of tracers being screened, transfections can be scaled up using the same ratios. The next day, for each tracer, four 20× screening solutions in tracer dilution buffer (Promega) were prepared: two duplicates at final concentration of 20 μM and two duplicates at a final concentration of 2 μM. […] The four resulting solutions were diluted 4-fold in Opti-MEM without serum or phenol red to generate 5× solutions (5 µM and 0.5 µM tracer +/− 100 μM competing compound). To screen the library, a BioTek MultiFlo FX liquid dispenser was used to dispense 22.5 µL of tracer solution to the top 4 rows and 22.5 µL tracer + competing compound solution to the 4 bottom rows. Plates were briefly mixed on an orbital shaker and incubated for 1.5 h at room temperature. […] Plates were briefly mixed on an orbital shaker and incubated for 15 min to allow complementation.

T1 sequence (Q01718 whole entry): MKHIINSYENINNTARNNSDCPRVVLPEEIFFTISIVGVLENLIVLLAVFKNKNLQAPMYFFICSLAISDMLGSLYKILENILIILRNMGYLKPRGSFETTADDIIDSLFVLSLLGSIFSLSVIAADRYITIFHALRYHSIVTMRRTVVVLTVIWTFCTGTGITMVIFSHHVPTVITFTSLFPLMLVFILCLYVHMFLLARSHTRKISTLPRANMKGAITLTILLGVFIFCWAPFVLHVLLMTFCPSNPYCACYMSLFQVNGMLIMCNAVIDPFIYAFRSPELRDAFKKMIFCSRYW

SMILES	NanoBRET Fold Response (MC2R, tracer 0.1μM)	NanoBRET Fold Response (MC2R, tracer 1μM)	also measured
Cc1nc2n(c(=O)c1CCN1CCC(c3noc4cc(F)ccc34)CC1)CCCC2OC(=O)NCCOCCOCCOCCOCCNC(=O)CCc1ccc2n1[B-](F)(F)[N+]1=C(c3ccc[nH]3)C=CC1=C2 (stereo not drawn) [Risperidone-2-NB590]	1.04	1.06	–
CCOC(=O)c1cc(C#N)c(N2CCC(C(=O)NS(=O)(=O)Cc3ccccc3/C=C/C(=O)NCCNC(=O)CCc3ccc4n3[B-](F)(F)[N+]3=C(c5ccc[nH]5)C=CC3=C4)CC2)nc1C [AZD1283-1-NB590]	–	–	NanoBRET Fold Response (MC2R, 0.1μM): 0.94; NanoBRET Fold Response (MC2R, 1μM): 1.02
Cc1cc2c(s1)Nc1ccccc1N=C2N1CCN(CCCNC(=O)CCOCCOCCOCCOCCNC(=O)CCc2ccc3n2[B-](F)(F)[N+]2=C(c4ccc[nH]4)C=CC2=C3)CC1 [Olanzapine-a-2-NB590]	0.98	1.21	–
COc1ccccc1N1CCN(CCCCN2C(=O)c3ccc(CNC(=O)CCOCCNC(=O)c4ccc(CNC(=O)CCc5ccc6n5[B-](F)(F)[N+]5=C(c7ccc[nH]7)C=CC5=C6)cc4)cc3C2=O)CC1 [NAN-190-3-NB590]	1.02	0.96	–
CC(C)N(CC[C@H](c1ccccc1)c1cc(CCNC(=O)CCOCCOCCOCCOCCNC(=O)CCc2ccc3n2[B-](F)(F)[N+]2=C(c4ccc[nH]4)C=CC2=C3)ccc1O)C(C)C [Tolterodine-2-NB590]	1.08	1.10	–
CN(C)CCC=C1c2ccccc2CCc2ccc(C(=O)NCCNC(=O)CCOCCOCCOCCOCCNC(=O)CCc3ccc4n3[B-](F)(F)[N+]3=C(c5ccc[nH]5)C=CC3=C4)cc21 [Amitriptyline-b-2-NB590]	–	–	NanoBRET Fold Response (tracer at 0.1μM): 1.00; NanoBRET Fold Response (tracer at 1μM): 1.02
O=C(CCOCCOCCOCCOCCNC(=O)CCc1ccc2n1[B-](F)(F)[N+]1=C(c3ccc[nH]3)C=CC1=C2)NCCCN1CCN(C2=Nc3ccccc3Oc3ccc(Cl)cc32)CC1 [Loxapine-a-2-NB590]	0.99	1.11	–
O=C(CCc1ccc2n1[B-](F)(F)[N+]1=C(c3ccc[nH]3)C=CC1=C2)NCCOCCOCCNC(=O)OCCOCCN1CCN(C2=Nc3ccccc3Sc3ccccc32)CC1 [Quetiapine-a-2-NB590]	0.98	0.95	–
COc1ccccc1N1CCN(CCCCN2C(=O)c3ccc(CNC(=O)CCOCCOCCOCCOCCNC(=O)CCc4ccc5n4[B-](F)(F)[N+]4=C(c6ccc[nH]6)C=CC4=C5)cc3C2=O)CC1 [NAN-190-2-NB590]	0.96	–	–
CN1CCN(C2=Nc3cc(Cl)ccc3N(CC(=O)NCCOCCOCCOCCOCCNC(=O)CCc3ccc4n3[B-](F)(F)[N+]3=C(c5ccc[nH]5)C=CC3=C4)c3ccccc32)CC1 [Clozapine-c-2-NB590]	–	–	NanoBRET Fold Response (MC2R, 0.1μM tracer): 0.99; NanoBRET Fold Response (MC2R, 1μM tracer): 1.11
COc1ccc2[nH]c(-c3ccc(CNC(=O)CCOCCOCCOCCOCCNC(=O)CCc4ccc5n4[B-](F)(F)[N+]4=C(c6ccc[nH]6)C=CC4=C5)cc3)c(CCNC(C)=O)c2n1 [AzomelatoninICO9-2-NB590]	–	–	NanoBRET Fold Response (0.1μM tracer): 0.93; NanoBRET Fold Response (1μM tracer): 1.16
O=C(CCOCCOCCOCCOCCNC(=O)CCc1ccc2n1[B-](F)(F)[N+]1=C(c3ccc[nH]3)C=CC1=C2)NCCCN1CCN(C2=Nc3cc(Cl)ccc3Nc3ccccc32)CC1 [Clozapine-a-2-NB590]	–	–	NanoBRET Fold Response (MC2R, 0.1μM tracer): 0.97; NanoBRET Fold Response (MC2R, 1μM tracer): 0.97
CCCn1c(=O)c2[nH]c(-c3ccc(OCC(=O)NCCNC(=O)CCOCCNC(=O)c4ccc(CNC(=O)CCc5ccc6n5[B-](F)(F)[N+]5=C(c7ccc[nH]7)C=CC5=C6)cc4)cc3)nc2n(CCC)c1=O [XAC-3-NB590]	1.02	1.05	–
O=C(CCc1ccc2n1[B-](F)(F)[N+]1=C(c3ccc[nH]3)C=CC1=C2)NCc1ccc(C(=O)NCCOCCOCCNCC(O)COc2cccc3ccccc23)cc1 (stereo not drawn) [Propranolol-3-NB590]	–	–	NanoBRET Fold Response (MC2R, 1μM): 1.03
O=C(CCc1ccc2n1[B-](F)(F)[N+]1=C(c3ccc[nH]3)C=CC1=C2)NCc1ccc(C(=O)NCCOCCC(=O)N[C@@H]2CC[C@@]3(O)[C@H]4Cc5ccc(O)c6c5[C@@]3(CCN4CC3CC3)[C@H]2O6)cc1 [Naltrexone-3-NB590]	0.75	1.15	–
N#CN=C(NCCCOc1cccc(CN2CCCCC2)c1)NCCNC(=O)CCOCCOCCOCCOCCNC(=O)CCc1ccc2n1[B-](F)(F)[N+]1=C(c3ccc[nH]3)C=CC1=C2 [Aminopotentidine-2-NB590]	0.97	0.92	–
COc1ccc2c(n1)c(CCNC(C)=O)cn2CCNC(=O)CCc1ccc2n1[B-](F)(F)[N+]1=C(c3ccc[nH]3)C=CC1=C2 [Azamelatonin-1-NB590]	–	–	NanoBRET Fold Response (0.1μM tracer): 0.89; NanoBRET Fold Response (1μM tracer): 1.03
CC(C)N(CC[C@H](c1ccccc1)c1cc(CCNC(=O)c2ccc(CNC(=O)CCc3ccc4n3[B-](F)(F)[N+]3=C(c5ccc[nH]5)C=CC3=C4)cc2)ccc1O)C(C)C [Tolterodine-BZ-NB590]	0.88	1.06	–
CN1CCN(C2=Nc3cc(Cl)ccc3Nc3ccc(CNC(=O)CCOCCOCCOCCOCCNC(=O)CCc4ccc5n4[B-](F)(F)[N+]4=C(c6ccc[nH]6)C=CC4=C5)cc32)CC1 [Clozapine-b-2-NB590]	–	–	NanoBRET Fold Response (MC2R, 0.1μM tracer): 1.02; NanoBRET Fold Response (MC2R, 1μM tracer): 1.00

Reference: publication PMC8151276, “An Integrated Approach toward NanoBRET Tracers for Analysis of GPCR Ligand Engagement” (Molecules, 2021)
